Laboratory results from paper PMC4583543, “Development and Validation of a Novel Leishmania donovani Screening Cascade for High-Throughput Screening Using a Novel Axenic Assay with High Predictivity of Leishmanicidal Intracellular Activity” (PLoS Neglected Tropical Diseases, 2015).
Read-outs that look alike come from different tables or passages of the source.

Columns and labels:
[1] = tested on: LdBOB axenic amastigote-like cells; assay: Novel (cidal) axenic amastigote assay, BacTiter-Glo read-out; type: cell-based, Leishmania donovani
Source text: Leishmania donovani BOB cells (LdBOB) used in this study are a cloned line from strain MHOM/SD/62/1S-CL2 [13]. Cultures were maintained as described previously. Compounds were dispensed into 384-well assay plates by acoustic dispensing (LabCyte ECHO). […] Potencies are reported as pEC50 (-LOG(EC50[M])). All data was processed using IDBS ActivityBase. […] For compounds with low activity and poor definition of the curve top, B was fixed to 100. For the determination of the reference compound panel potency, all experiments were carried out with a minimum of three independent repeats. Test compounds were pre-dispensed into white 384 well plates (Corning). For library screens one compound per well was tested at the indicated final concentration. […] DMSO, zero percent effect control: cells at starting concentration. The zero percent effect control wells are left empty during the course of the assay. […] The assay volume is 25 μl / well. […] Plates were then sealed with clear film and relative luminescence was detected using a plate reader (Victor 3) from Perkin Elmer or PHERAstar FS from BMG LABTECH, with 0.5 s detection time per well).

THP-1 cells = assay: THP-1 host cell toxicity in the intramacrophage assay; type: cell-based, human; conditions: for EC50: Homo sapiens
Procedure: (§1) Compounds were dispensed into 384-well assay plates by acoustic dispensing (LabCyte ECHO). […] Potencies are reported as pEC50 (-LOG(EC50[M])).
(§2) All data was processed using IDBS ActivityBase. […] Potency plates were normalised to DMSO control (0% effect) and 2μM amphotericin B control (100% effect). […] For compounds with low activity and poor definition of the curve top, B was fixed to 100. For the determination of the reference compound panel potency, all experiments were carried out with a minimum of three independent repeats.
(§3) The assay conditions are described previously. Briefly PMA differentiated THP-1 cells were infected overnight with eGFP expressing LdBOB amastigote-like cells at a multiplicity of infection of 5. Next, any remaining free amastigote-like cells are removed and compounds are added. The microscopy-based read-out is done after a four day compound incubation.

HepG2 cells = assay: HepG2 assay (mammalian counterscreen, resazurin); type: cell-based, human; conditions: for EC50: Homo sapiens, read-out: HepG2 (potency, pEC50) (converted)
Procedure: Compounds were dispensed into 384-well assay plates by acoustic dispensing (LabCyte ECHO). […] Potencies are reported as pEC50 (-LOG(EC50[M])). All data was processed using IDBS ActivityBase. […] For compounds with low activity and poor definition of the curve top, B was fixed to 100. For the determination of the reference compound panel potency, all experiments were carried out with a minimum of three independent repeats. The assay conditions are described previously.

[2] = tested on: eGFP expressing LdBOB amastigote-like cells in PMA differentiated THP-1 cells; assay: Intramacrophage (intracellular, INMAC) assay; type: cell-based, Leishmania donovani; conditions: for EC50: Leishmania donovani, THP-1, 96 h, read-out: Intramacrophage (potency, pEC50) (converted)
Procedure: as §1, §2, §3

[3] = set-up: method as in PMID 197231; conditions: cited from earlier work
[4] = cited from earlier work
[5] = Leishmania donovani; read-out: Novel (axenic assay potency, pEC50) (converted)
[6] = THP-1, reference compound panel, mean (standard deviation), host cell toxicity, read-out: THP-1 (potency, pEC50) (converted)
[7] = HepG2, reference compound panel, mean (standard deviation), 72 h
[8] = reference compound panel, mean (standard deviation), minimum three independent repeats, four day incubation
[9] = reference compound panel; mean (standard deviation), minimum three independent repeats; top concentration 50 μM; pEC50 = -LOG(EC50[M])
[10] = reference compound panel, mean (standard deviation), host cell toxicity
[11] = reference compound panel, mean (standard deviation), 72 h

Compound	EC50 [1, 5]	EC50 (THP-1 cells; [6])	EC50 (HepG2 cells; [7])	EC50 [2, 8]	also measured
NCCCC(O)(P(=O)(O)O)P(=O)(O)O [Alendronic acid]	> 50.1 µM	> 34.7 µM	> 50.1 µM	> 34.7 µM	–
CCN(CC)Cc1cc(Nc2ccnc3cc(Cl)ccc23)ccc1O [Amodiaquine]	> 50.1 µM	29.5 µM	25.7 µM	4.07 µM	activity in words (intracellular versus novel axenic) ([2]; reference compound panel): only active in the intracellular assay
C[C@@H]1[C@H](O)[C@@H](C)/C=C/C=C/C=C/C=C/C=C/C=C/C=C/[C@H](O[C@@H]2O[C@H](C)[C@@H](O)[C@H](N)[C@@H]2O)C[C@@H]2O[C@](O)(C[C@@H](O)C[C@@H](O)[C@H](O)CC[C@@H](O)C[C@@H](O)CC(=O)O[C@H]1C)C[C@H](O)[C@H]2C(=O)O [Amphotericin B]	0.302 µM	26.9 µM	> 50.1 µM	0.24 µM	EC50 ([1]; Leishmania donovani; control on each plate, run to run over extended time period; ± StDev; read-out: average pEC50 of plate control (converted)): 0.126 µM
COc1ccc2cc3[n+](cc2c1OC)CCc1cc2c(cc1-3)OCO2 [Berberine]	9.33 µM	> 34.7 µM	33.9 µM	16.2 µM	–
C[C@@]12C(=O)OC(=O)[C@]1(C)[C@H]1CC[C@@H]2O1 [Cantharidin]	–	–	–	–	EC50 ([1]; Leishmania donovani, read-out: Novel (axenic assay potency, pEC50) (converted)): 4.37 µM; EC50 (THP-1 cells; THP-1, read-out: THP-1 (potency, pEC50) (converted)): 2.75 µM; EC50 (HepG2 cells; HepG2, 72 h): 1.35 µM; EC50 [2]: 13.2 µM
N=C(N)c1ccc(/N=N/Nc2ccc(C(=N)N)cc2)cc1 [Diminazene]	11.7 µM	> 34.7 µM	> 50.1 µM	> 34.7 µM	–
CCN(CC)C(=S)SSC(=S)N(CC)CC [Disulfiram]	0.363 µM	> 34.7 µM	45.7 µM	> 34.7 µM	activity in words (novel axenic versus intracellular) ([1]; reference compound panel): only active in the novel axenic assay; stability in serum [3]: unstable in serum; aqueous solubility [4]: poor
CC(=O)O[C@@]12CO[C@@H]1C[C@H](O)[C@@]1(C)C(=O)[C@H](O)C3=C(C)[C@@H](OC(=O)[C@H](O)[C@@H](NC(=O)OC(C)(C)C)c4ccccc4)C[C@@](O)([C@@H](OC(=O)c4ccccc4)[C@H]21)C3(C)C [Docetaxel]	8.91 µM	> 34.7 µM	–	14.5 µM	–
OC(c1ccc(Cl)cc1)(c1cncnc1)c1ccccc1Cl (stereo not shown) [Fenarimol]	> 50.1 µM	> 34.7 µM	> 50.1 µM	> 34.7 µM	–
Cn1c([N+](=O)[O-])cnc1COc1ccc(S(C)(=O)=O)cc1 [Fexinidazole sulfone]	7.76 µM	> 34.7 µM	> 50.1 µM	32.4 µM	–
CSc1ccc(OCc2ncc([N+](=O)[O-])n2C)cc1 [Fexinidazole]	11.5 µM	> 34.7 µM	> 50.1 µM	> 34.7 µM	–
CC(C)Cn1cnc2c(N)nc3ccccc3c21 [Imiquimod]	> 50.1 µM	> 34.7 µM	> 50.1 µM	–	EC50 [2]: > 34.7 µM
CC(C)(C)NC(=O)[C@@H]1CN(Cc2cccnc2)CCN1C[C@@H](O)C[C@@H](Cc1ccccc1)C(=O)N[C@H]1c2ccccc2C[C@H]1O [Indinavir]	> 50.1 µM	> 34.7 µM	> 50.1 µM	> 34.7 µM	–
C=CC(C)(C)c1cc(/C=C/C(=O)c2ccc(O)cc2)c(OC)cc1O [Licochalcone A]	–	–	–	–	Novel (axenic assay potency, pEC50) [1, 9]: 4.67 (0.15); THP-1 (potency, pEC50) (THP-1 cells; [10]): 4.46 (0.01); HepG2 (potency, pEC50) (HepG2 cells; [11]): 4.44 (0.09); Intramacrophage (potency, pEC50) [2, 8]: 4.65 (0.17)
O=c1cc(-c2ccc(O)c(O)c2)oc2cc(O)cc(O)c12 [Luteolin]	46.8 µM	14.5 µM	24.5 µM	28.2 µM	–
OC(c1cc(C(F)(F)F)nc2c(C(F)(F)F)cccc12)C1CCCCN1 (stereo not shown) [Mefloquine]	> 50.1 µM	12 µM	9.77 µM	8.51 µM	activity in words (intracellular versus novel axenic) ([2]; reference compound panel): only active in the intracellular assay
CC1=CC(=O)c2ccccc2C1=O [Menadione]	10.2 µM	33.1 µM	3.47 µM	> 34.7 µM	–
CCCCCCCCCCCCCCCCOP(=O)([O-])OCC[N+](C)(C)C [Miltefosine]	31.6 µM	> 34.7 µM	> 50.1 µM	0.794 µM	potency difference, intracellular assay relative to novel axenic assay ([2]; more active in the intracellular assay): around ten-fold
CC1CS(=O)(=O)CCN1/N=C/c1ccc([N+](=O)[O-])o1 (stereo not shown) [Nifurtimox]	11.2 µM	> 34.7 µM	> 50.1 µM	> 34.7 µM	–
C[C@@H]1[C@H](O)[C@@H](C)/C=C/C=C/CC/C=C/C=C/C=C/C=C/C(O[C@H]2O[C@H](C)[C@@H](O)[C@H](N)[C@@H]2O)CC2O[C@](O)(CC(O)C(O)CCC(O)CC(O)CC(O)CC(=O)O[C@H]1C)CC(O)C2C(=O)O (stereo partly shown) [Nystatin]	–	–	–	–	Novel (axenic assay potency, pEC50) [1, 9]: 5.19 (0.21); THP-1 (potency, pEC50) (THP-1 cells; [10]): < 4.46; HepG2 (potency, pEC50) (HepG2 cells; [11]): < 4.3; Intramacrophage (potency, pEC50) [2, 8]: 4.68 (0.5)
NC[C@@H]1O[C@H](O[C@H]2[C@@H](O)[C@H](O[C@@H]3[C@@H](O)[C@H](N)C[C@H](N)[C@H]3O[C@H]3O[C@H](CO)[C@@H](O)[C@H](O)[C@H]3N)O[C@@H]2CO)[C@H](N)[C@@H](O)[C@@H]1O [Paromomycin]	> 50.1 µM	> 34.7 µM	> 50.1 µM	> 34.7 µM	–
N=C(N)c1ccc(OCCCCCOc2ccc(C(=N)N)cc2)cc1 [Pentamidine]	8.71 µM	> 34.7 µM	2.82 µM	15.5 µM	–
CC[C@@H]([C@H](C)O)n1ncn(-c2ccc(N3CCN(c4ccc(OC[C@@H]5CO[C@@](Cn6cncn6)(c6ccc(F)cc6F)C5)cc4)CC3)cc2)c1=O [Posaconazole]	36.3 µM	17.8 µM	8.51 µM	18.6 µM	–
NC(=O)c1cnccn1 [Pyrazinamide]	> 50.1 µM	> 34.7 µM	> 50.1 µM	> 34.7 µM	–
Cc1ccc(C(=O)Nc2ccc(S(=O)(=O)O)c3cc(S(=O)(=O)O)cc(S(=O)(=O)O)c23)cc1NC(=O)c1cccc(NC(=O)Nc2cccc(C(=O)Nc3cc(C(=O)Nc4ccc(S(=O)(=O)O)c5cc(S(=O)(=O)O)cc(S(=O)(=O)O)c45)ccc3C)c2)c1 [Suramin]	> 50.1 µM	> 34.7 µM	> 50.1 µM	> 34.7 µM	–
